Molecular target: IRAK4 (Homo sapiens (Human), UniProt Q9NWZ3)
Assay: IRAK-4 AlphaScreen biochemical kinase assay
Settings: 1 nM IRAK4, 1 mM ATP, 3.5 h at RT
In short: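 AlphaScreen read-out: streptavidin beads bind the biotinylated peptide and protein A beads bind the anti-phosphothreonine antibody, so energy transfer reports phosphorylation of the peptide. The kinase is human IRAK-4.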

IRAK4, sequence (Q9NWZ3 whole entry, species assumed): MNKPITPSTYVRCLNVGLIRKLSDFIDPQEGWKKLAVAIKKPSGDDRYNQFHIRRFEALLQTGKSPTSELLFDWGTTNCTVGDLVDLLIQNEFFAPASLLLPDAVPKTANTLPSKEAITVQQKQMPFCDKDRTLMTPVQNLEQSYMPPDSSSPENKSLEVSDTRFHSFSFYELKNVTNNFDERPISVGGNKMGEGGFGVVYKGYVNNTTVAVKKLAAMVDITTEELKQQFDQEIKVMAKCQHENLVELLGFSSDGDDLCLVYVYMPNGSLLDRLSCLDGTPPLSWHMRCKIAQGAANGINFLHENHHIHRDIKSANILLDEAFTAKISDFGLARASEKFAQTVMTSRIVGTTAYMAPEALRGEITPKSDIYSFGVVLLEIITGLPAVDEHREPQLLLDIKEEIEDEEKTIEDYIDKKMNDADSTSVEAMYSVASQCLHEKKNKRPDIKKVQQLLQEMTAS

Compared with `N#Cc1cccc(-c2ncc3ccc(-c4cncc(N)c4)cn23)n1` [Example 76, 6-(6-(5-aminopyridin-3-yl)imidazo[1,5-a]pyridin-3-yl)picolinonitrile], `CCC[C@@H](c1cccc(-c2ccc3cnn(-c4cccc(CO)n4)c3c2)n1)N(C)C` [Example 566, (S)-(6-(6-(6-(1-(dimethylamino)butyl)pyridin-2-yl)-1H-indazol-1-yl)pyridin-2-yl)methanol] is higher in IC50: under 100 nM for the first, 100 to 1000 nM for the second. The first is the more potent here.

First: Nc1cncc(-c2ccc3cnn(-c4cccc(C(F)(F)F)n4)c3c2)n1 [Example 96, 6-(1-(6-(trifluoromethyl)pyridin-2-yl)-1H-indazol-6-yl)pyrazin-2-amine]
Second: Nc1cncc(-c2ccc3cnn(-c4cccc(CC(=O)O)n4)c3c2)c1 [Example 82, 2-(6-(6-(5-aminopyridin-3-yl)-1H-indazol-1-yl)pyridin-2-yl)acetic acid]
The IC50 of the first is lower: 100 to 1000 nM for the first, 1000 to 10000 nM for the second.

`N#CC(N)c1cccc(-c2ccc3cnn(-c4cccc(CO)n4)c3c2)n1` (stereo not drawn) [Example 560, 2-amino-2-(6-(1-(6-(hydroxymethyl)pyridin-2-yl)-1H-indazol-6-yl)pyridin-2-yl)acetonitrile] and `Cc1ccc(-n2ncc3ccc(-c4cccc(N)c4)cc32)nc1C` [Example 24, 3-(1-(5,6-dimethylpyridin-2-yl)-1H-indazol-6-yl)aniline] fall in the same range of IC50: 1000 to 10000 nM for the first, 1000 to 10000 nM for the second.

First: CCC[C@H](N)c1cccc(-c2cc(N3CCOCC3=O)c3cnn(-c4cccc(CO)n4)c3c2)n1 [Example 351, (S)-4-(6-(6-(1-aminobutyl)pyridin-2-yl)-1-(6-(hydroxymethyl)pyridin-2-yl)-1H-indazol-4-yl)morpholin-3-one]
Second: CCCC(N)c1cccc(-c2ccc3cnn(-c4cccc(CO)n4)c3c2)n1 (stereo not drawn) [Example 280, (6-(6-(6-(1-aminobutyl)pyridin-2-yl)-1H-indazol-1-yl)pyridin-2-yl)methanol]
The IC50 of the first is higher: 100 to 1000 nM for the first, under 100 nM for the second.

`CCCC1(N)CCCc2ccc(-c3ccc4cnn(-c5cccc(CO)n5)c4c3)nc21` (stereo not drawn) [Example 421, (6-(6-(8-amino-8-propyl-5,6,7,8-tetrahydroquinolin-2-yl)-1H-indazol-1-yl)pyridin-2-yl)methanol] and `C[C@H](N)c1cccc(-c2cc(-c3cccnn3)c3cnn(-c4cccc(CO)n4)c3c2)n1` [Example 394, (S)-(6-(6-(6-(1-aminoethyl)pyridin-2-yl)-4-(pyridazin-3-yl)-1H-indazol-1-yl)pyridin-2-yl)methanol] cannot be ordered by IC50: under 100 nM for the first, under 100 nM for the second.

`N#CCC[C@H](N)c1cccc(-c2ccc3cnn(-c4cccc(CO)n4)c3c2)n1` [Example 592, (S)-4-amino-4-(6-(1-(6-(hydroxymethyl)pyridin-2-yl)-1H-indazol-6-yl)pyridin-2-yl)butanenitrile] and `C[C@H](N)c1cccc(-c2cc(-c3cnccn3)c3cnn(-c4cccc(CO)n4)c3c2)n1` [Example 388, (S)-(6-(6-(6-(1-aminoethyl)pyridin-2-yl)-4-(pyrazin-2-yl)-1H-indazol-1-yl)pyridin-2-yl)methanol] cannot be ordered by IC50: under 100 nM for the first, under 100 nM for the second.

`COC(=O)c1cc(-c2cccc(C(C)N)n2)cc2c1cnn2-c1cccc(C)n1` (stereo not drawn) [Example 112, methyl 6-(6-(1-aminoethyl)pyridin-2-yl)-1-(6-methylpyridin-2-yl)-1H-indazole-4-carboxylate] and `CNCc1cccc(-c2ccc3cnn(-c4cccc(C)n4)c3c2)c1` [Example 18, N-methyl-1-(3-(1-(6-methylpyridin-2-yl)-1H-indazol-6-yl)phenyl)methanamine] cannot be ordered by IC50: under 100 nM for the first, under 100 nM for the second.

Compared with `NC(=O)c1cccc(-c2ncc3ccc(-c4cncc(N)c4)cn23)n1` [Example 77, 6-(6-(5-aminopyridin-3-yl)imidazo[1,5-a]pyridin-3-yl)picolinamide], `C/C(=N\O)c1cccc(-c2ccc3cnn(-c4ccccn4)c3c2)n1` [Example 230, (E)-1-(6-(1-(pyridin-2-yl)-1H-indazol-6-yl)pyridin-2-yl)ethanone oxime] is higher in IC50: 100 to 1000 nM for the first, over 10000 nM for the second. The first is the more potent here.

First: C[C@H](N)c1cccc(-c2cc(-n3cccn3)c3cnn(-c4cccc(CO)n4)c3c2)n1 [Example 352, (S)-(6-(6-(6-(1-aminoethyl)pyridin-2-yl)-4-(1H-pyrazol-1-yl)-1H-indazol-1-yl)pyridin-2-yl)methanol]
Second: COCCOc1cc(-c2cccc(C3(N)COC3)n2)cc2c1cnn2-c1cccc(CO)n1 [Example 465, (6-(6-(6-(3-aminooxetan-3-yl)pyridin-2-yl)-4-(2-methoxyethoxy)-1H-indazol-1-yl)pyridin-2-yl)methanol]
The IC50 of the first is lower: under 100 nM for the first, 100 to 1000 nM for the second. The first is the more potent here.

Compared with `CCC[C@H](N)c1cccc(-c2ccc3cnn(-c4cccc(C(C)O)n4)c3c2)n1` (single isomer, unassigned) [Example 417], `Cc1cc(C#N)cc(-n2ncc3ccc(-c4cncc(N)c4)cc32)n1` [Example 34, 2-(6-(5-aminopyridin-3-yl)-1H-indazol-1-yl)-6-methylisonicotinonitrile] is higher in IC50: under 100 nM for the first, 100 to 1000 nM for the second.

Compared with `CC(c1cccc(-c2ccc3cnn(-c4cccc(C(F)(F)F)n4)c3c2)n1)N(C)C` (stereo not drawn) [Example 216, N,N-dimethyl-1-(6-(1-(6-(trifluoromethyl)pyridin-2-yl)-1H-indazol-6-yl)pyridin-2-yl)ethanamine], `CCc1cc(-c2cccc(C(C)N)n2)cc2c1cnn2-c1cccc(C)n1` (stereo not drawn) [Example 109, 1-(6-(4-ethyl-1-(6-methylpyridin-2-yl)-1H-indazol-6-yl)pyridin-2-yl)ethanamine] is higher in IC50: under 100 nM for the first, 100 to 1000 nM for the second.

Compared with `N#CCCCNC(=O)c1cccc(-n2ncc3ccc(-c4cncc(N)c4)cc32)n1` [Example 71, 6-(6-(5-aminopyridin-3-yl)-1H-indazol-1-yl)-N-(3-cyanopropyl)picolinamide], `CCC[C@@H](N)c1cccc(-c2ccc3cnn(-c4cccc(CO)n4)c3c2)n1` [Example 146, (R)-(6-(6-(6-(1-aminobutyl)pyridin-2-yl)-1H-indazol-1-yl)pyridin-2-yl)methanol] is lower in IC50: 100 to 1000 nM for the first, under 100 nM for the second. The second is the more potent here.

`N[C@@H](CCCO)c1cccc(-c2ccc3cnn(-c4cccc(CO)n4)c3c2)n1` [Example 396, (S)-4-amino-4-(6-(1-(6-(hydroxymethyl)pyridin-2-yl)-1H-indazol-6-yl)pyridin-2-yl)butan-1-ol] and `CCC[C@H](N)c1cncc(-c2ccc3cnn(-c4cccc(CO)n4)c3c2)n1` [Example 407, (S)-(6-(6-(6-(1-aminobutyl)pyrazin-2-yl)-1H-indazol-1-yl)pyridin-2-yl)methanol] cannot be ordered by IC50: under 100 nM for the first, under 100 nM for the second.

First: N#Cc1ccnc(-n2ncc3ccc(-c4cncc(N)c4)cc32)c1 [Example 35, 2-(6-(5-aminopyridin-3-yl)-1H-indazol-1-yl)isonicotinonitrile]
Second: COCCOc1cc(-c2cccc([C@@H](N)C3CC3)n2)cc2c1cnn2-c1cccc(CO)n1 [Example 588, (S)-(6-(6-(6-(amino(cyclopropyl)methyl)pyridin-2-yl)-4-(2-methoxyethoxy)-1H-indazol-1-yl)pyridin-2-yl)methanol]
The IC50 of the first is higher: 100 to 1000 nM for the first, under 100 nM for the second.

Going from `COC(=O)c1cccc(-n2ncc3ccc(-c4cccc(/C(C)=N/O)n4)cc32)n1` [Example 237, (E)-methyl 6-(6-(6-(1-(hydroxyimino)ethyl)pyridin-2-yl)-1H-indazol-1-yl)picolinate] to `Cc1cccc(-n2ncc3ccc(-c4cccc(C(N)C(=O)O)n4)cc32)n1` (stereo not drawn) [Example 273, 2-amino-2-(6-(1-(6-methylpyridin-2-yl)-1H-indazol-6-yl)pyridin-2-yl)acetic acid], the IC50 falls from over 10000 nM to under 100 nM.

First: FC(F)(F)c1cccc(-n2ncc3ccc(-c4cccc(C5CCCN5)n4)cc32)n1 (stereo not drawn) [Example 97, 6-(6-(pyrrolidin-2-yl)pyridin-2-yl)-1-(6-(trifluoromethyl)pyridin-2-yl)-1H-indazole]
Second: 1-(6-methylpyridin-2-yl)-1H-pyrazolo[4,3-c]pyridin-7-amine [Example 200]
The IC50 of the first is higher: 100 to 1000 nM for the first, under 100 nM for the second.

First: NCCNC(=O)c1cccc(-n2ncc3ccc(-c4cncc(N)c4)cc32)n1 [Example 72, N-(2-aminoethyl)-6-(6-(5-aminopyridin-3-yl)-1H-indazol-1-yl)picolinamide]
Second: Cc1cncc(-n2ncc3ccc(-c4cccc(C(C)N)n4)cc32)n1 (stereo not drawn) [Example 559, 1-(6-(1-(6-methylpyrazin-2-yl)-1H-indazol-6-yl)pyridin-2-yl)ethanamine]
The IC50 of the first is lower: under 100 nM for the first, 100 to 1000 nM for the second. The first is the more potent here.

Compared with `COC(=O)CC(N)c1cccc(-c2ccc3cnn(-c4cccc(C)n4)c3c2)n1` (stereo not drawn) [Example 261, methyl 3-amino-3-(6-(1-(6-methylpyridin-2-yl)-1H-indazol-6-yl)pyridin-2-yl)propanoate], `Cc1cccc(-n2ncc3ccc(-c4cccc(C(N)C(N)=O)n4)cc32)n1` (stereo not drawn) [Example 267, 2-amino-2-(6-(1-(6-methylpyridin-2-yl)-1H-indazol-6-yl)pyridin-2-yl)acetamide] is higher in IC50: under 100 nM for the first, 100 to 1000 nM for the second. The first is the more potent here.

First: Nc1cncc(-c2cc(C(=O)O)c3cnn(-c4cccc(C(F)(F)F)n4)c3c2)c1 [Example 51, 6-(5-aminopyridin-3-yl)-1-(6-(trifluoromethyl)pyridin-2-yl)-1H-indazole-4-carboxylic acid]
Second: Cc1cccc(-n2ncc3ccc(-c4csc(CN)n4)cc32)n1 [Example 252, (4-(1-(6-methylpyridin-2-yl)-1H-indazol-6-yl)thiazol-2-yl)methanamine]
The IC50 of the first is lower: under 100 nM for the first, 100 to 1000 nM for the second.

`CC(=O)c1cccc(-c2cc(N(C)C)c3cnn(-c4cccc(C)n4)c3c2)n1` [Example 233, 1-(6-(4-(dimethylamino)-1-(6-methylpyridin-2-yl)-1H-indazol-6-yl)pyridin-2-yl)ethanone] and `CC(=O)NCc1cccc(-c2ccc3cnn(-c4cccc(C)n4)c3c2)n1` [Example 253, N-((6-(1-(6-methylpyridin-2-yl)-1H-indazol-6-yl)pyridin-2-yl)methyl)acetamide] fall in the same range of IC50: 1000 to 10000 nM for the first, 1000 to 10000 nM for the second.

First: CN(C)CCNC(=O)c1cccc(-n2ncc3ccc(-c4cncc(N)c4)cc32)n1 [Example 69, 6-(6-(5-aminopyridin-3-yl)-1H-indazol-1-yl)-N-(2-(dimethylamino)ethyl)picolinamide]
Second: CCC[C@H](N)c1cccc(-c2ccc3cnn(-c4cccc(CO)c4)c3c2)n1 [Example 402, (S)-(3-(6-(6-(1-aminobutyl)pyridin-2-yl)-1H-indazol-1-yl)phenyl)methanol]
The IC50 of the first is higher: 1000 to 10000 nM for the first, under 100 nM for the second. The second is the more potent here.

— US10246456B2, “IRAK4 inhibiting agents” (BIOGEN MA INC., priority 2014, dated 2019)
